Consider 18 molecules from ChEMBL document CHEMBL4732141, “Imidazopyridine-Based 5-HT Receptor Neutral Antagonists: Impact of N-Benzyl and N-Phenylsulfonyl Fragments on Different Receptor Conformational States” (J Med Chem, 2021).

Structures are written as SMILES. Calls of active or inactive are those of the source. The rule behind the calls is not given here.

Series [1] in a line: Neurotoxicity in human SH-SY5Y cells assessed as reduction in cell viability incubated for 24 hrs by MTT assay. It counts as toxicity, cell-based. For orientation: Tetrazolium assays rely on reduction of a dye to a coloured formazan, in cell work by metabolically active cells.
In series [2] the target is 5-hydroxytryptamine receptor 2A (Homo sapiens, UniProt P28223). As to the kind of experiment: Displacement of […] from human 5HT2A expressed in HEK293 cell membranes incubated for 1 hr by micro-beta plate reader based analysis. On the set-up: species or system Cell membrane.
Sequence of 5-hydroxytryptamine receptor 2A (P28223 whole entry): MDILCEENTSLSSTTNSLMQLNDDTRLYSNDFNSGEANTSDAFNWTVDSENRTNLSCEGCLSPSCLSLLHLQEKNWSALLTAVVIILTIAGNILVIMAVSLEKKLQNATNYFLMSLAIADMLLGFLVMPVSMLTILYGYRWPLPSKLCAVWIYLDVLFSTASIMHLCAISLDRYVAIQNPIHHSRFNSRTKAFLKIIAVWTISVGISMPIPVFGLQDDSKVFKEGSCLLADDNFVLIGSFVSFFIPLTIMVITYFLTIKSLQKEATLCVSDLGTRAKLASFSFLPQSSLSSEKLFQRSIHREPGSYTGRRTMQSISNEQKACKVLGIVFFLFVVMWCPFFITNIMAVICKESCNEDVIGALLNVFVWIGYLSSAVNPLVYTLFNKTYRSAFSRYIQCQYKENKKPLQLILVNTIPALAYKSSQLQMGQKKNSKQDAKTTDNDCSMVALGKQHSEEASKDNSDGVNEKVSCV
In series [3] the target is T1, 5-hydroxytryptamine receptor 1A (Homo sapiens, UniProt P08908).
T1 sequence (P08908 whole entry): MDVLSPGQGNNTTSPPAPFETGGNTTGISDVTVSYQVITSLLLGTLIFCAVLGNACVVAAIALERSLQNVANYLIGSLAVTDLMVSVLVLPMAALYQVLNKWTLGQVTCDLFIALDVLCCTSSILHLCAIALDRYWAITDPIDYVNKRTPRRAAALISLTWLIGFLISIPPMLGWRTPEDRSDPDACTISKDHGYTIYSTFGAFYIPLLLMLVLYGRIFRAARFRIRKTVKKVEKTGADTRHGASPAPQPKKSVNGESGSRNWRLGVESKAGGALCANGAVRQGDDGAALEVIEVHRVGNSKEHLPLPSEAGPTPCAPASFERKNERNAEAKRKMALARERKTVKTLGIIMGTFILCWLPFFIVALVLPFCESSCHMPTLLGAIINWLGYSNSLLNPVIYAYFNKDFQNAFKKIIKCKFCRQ
As to the kind of experiment: Displacement of […] from human 5HT1A expressed in HEK293 cell membranes incubated for 1 hr by micro-beta plate reader based analysis. On the set-up: species or system Cell membrane.

The nature of series [4]: Stability in deuterated dimethyl sulfoxide. It counts as physicochemical.
Series [5] in a line: Stability in pH 1 buffer assessed as compound decomposition after 1 hr. It counts as physicochemical. The conditions noted are these: pH 1, 1 h.
Series [6] concerns the target 5-hydroxytryptamine receptor 6 (Homo sapiens, UniProt P50406). Nature of the series: Binding affinity to 5HT6R (unknown origin).
Series [7] can be described thus: Toxicity in mouse C8-D1A astrocytes assessed as reduction in cell viability at […] by MTT assay. It counts as cell-based. The conditions noted are these: astrocyte, dose 0.25 µM.
The nature of series [8]: Effect on neurite growth in […] NG108-15 cells expressing GFP-tagged 5-HT6 receptor assessed as neurite length at 1 uM incubated for 24 hrs by epifluorescence microscopy (reference value: 37.20 +/- 1.53 micrometer). The format is functional.
A short description of series [9]: Toxicity in mouse C8-D1A astrocytes assessed as reduction in cell viability by MTT assay. The format is cell-based, Astrocyte.
In series [10] the target is T1, 5-hydroxytryptamine receptor 1A. Nature of the series: Antagonist activity at human 5HT1A expressed in HEK293 cells assessed as reduction in forskolin-induced stimulation of cAMP production incubated for 30 mins by LANCE ultra cAMP detection assay. The format is cell-based. As to conditions: hek293, 0.5 h. A general note: Changes in cAMP serve as a functional read-out for many G protein-coupled receptors.

For series [11] the target is unchanged. Nature of the series: Agonist activity at human 5HT1A expressed in HEK293 cells assessed as stimulation of cAMP production incubated for 30 mins by LANCE ultra cAMP detection assay. It counts as cell-based.
Series [12] addresses histamine H1 receptor (HRH1) (Homo sapiens, UniProt P35367). As to the kind of experiment: Inhibition of human HRH1 at 1 uM relative to control.
Series [13] deals with T2, alpha-1A adrenergic receptor (Homo sapiens, UniProt P35348).
T2 sequence (P35348 whole entry): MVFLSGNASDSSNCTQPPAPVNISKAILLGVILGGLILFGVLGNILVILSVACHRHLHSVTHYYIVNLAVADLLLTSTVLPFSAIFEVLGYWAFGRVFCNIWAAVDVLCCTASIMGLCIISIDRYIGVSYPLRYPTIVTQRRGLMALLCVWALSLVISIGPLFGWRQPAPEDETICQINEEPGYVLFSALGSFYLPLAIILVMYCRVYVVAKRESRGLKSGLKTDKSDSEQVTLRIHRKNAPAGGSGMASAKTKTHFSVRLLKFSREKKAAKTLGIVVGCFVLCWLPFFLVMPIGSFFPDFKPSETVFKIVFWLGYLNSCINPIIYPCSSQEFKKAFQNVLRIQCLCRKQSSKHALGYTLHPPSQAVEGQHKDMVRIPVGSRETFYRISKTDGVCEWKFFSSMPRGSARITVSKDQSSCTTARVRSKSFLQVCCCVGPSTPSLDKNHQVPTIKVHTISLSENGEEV
Nature of the series: Inhibition of human alpha1A adrenergic receptor at 1 uM relative to control.

Series [14] has as its target T3, muscarinic acetylcholine receptor M1 (Homo sapiens, UniProt P11229).
T3 sequence (P11229 whole entry): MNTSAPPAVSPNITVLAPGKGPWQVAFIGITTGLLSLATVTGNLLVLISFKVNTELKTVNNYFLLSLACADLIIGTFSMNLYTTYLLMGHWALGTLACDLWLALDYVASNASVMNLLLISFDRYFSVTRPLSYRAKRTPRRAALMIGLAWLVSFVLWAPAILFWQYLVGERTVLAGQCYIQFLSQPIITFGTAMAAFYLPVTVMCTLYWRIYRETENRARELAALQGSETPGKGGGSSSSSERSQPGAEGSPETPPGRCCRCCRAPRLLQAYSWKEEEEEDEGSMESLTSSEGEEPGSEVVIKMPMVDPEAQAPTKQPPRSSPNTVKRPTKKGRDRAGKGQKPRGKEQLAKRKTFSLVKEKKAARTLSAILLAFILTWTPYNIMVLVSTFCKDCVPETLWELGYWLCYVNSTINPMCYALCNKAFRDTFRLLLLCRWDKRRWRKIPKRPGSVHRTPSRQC
As to the kind of experiment: Inhibition of human muscarinic receptor 1 at 1 uM relative to control.

Series [15] has as its target hERG (KCNH2) (Homo sapiens, UniProt Q12809). As to the kind of experiment: Inhibition of human ERG at 1 uM relative to control.
Series [16] concerns the target beta-1 adrenergic receptor (Homo sapiens, UniProt P08588). As to the kind of experiment: Inhibition of human beta1 adrenergic receptor at 1 uM relative to control.
A short description of series [17]: Stability in pH 1 buffer assessed as compound decomposition after 24 hrs. It counts as physicochemical. As to conditions: pH 1, 24 h.
Series [18] concerns Astrocyte. As to the kind of experiment: Glio-protective activity in mouse C8-D1A astrocytes assessed as reduction in DOX-induced toxicity at […] pre-incubated for 5 hrs before doxorubicin addition and measured after 3 hrs by MTT assay. The format is functional, cell-based. The conditions noted are these: dose 0.25 µM, time 8.0 hrs.
Series [19] has as its system Astrocyte. As to the kind of experiment: Glio-protective activity in mouse C8-D1A astrocytes assessed as reduction in 6-OHDA-induced toxicity at […] pre-incubated for 12 hrs before doxorubicin addition and measured after 24 hrs by MTT assay. It counts as functional, cell-based. The conditions noted are these: dose 0.25 µM, time 36.0 hrs.
Series [20] concerns Astrocyte. As to the kind of experiment: Glio-protective activity in mouse C8-D1A astrocytes assessed as reduction in DOX-induced toxicity at […] pre-incubated for 5 hrs before doxorubicin addition and measured after 3 hrs by LDH release assay. It counts as functional, cell-based. As to conditions: dose 0.25 µM. On the technique in general: LDH leaks from cells whose membrane has failed.

The test system of series [21] is Astrocyte. As to the kind of experiment: Glio-protective activity in mouse C8-D1A astrocytes assessed as reduction in 6-OHDA-induced toxicity at […] pre-incubated for 12 hrs before doxorubicin addition and measured after 24 hrs by LDH assay. The conditions noted are these: dose 0.25 µM, time 36.0 hrs. It counts as functional, cell-based.

Sequence of beta-1 adrenergic receptor (P08588 whole entry): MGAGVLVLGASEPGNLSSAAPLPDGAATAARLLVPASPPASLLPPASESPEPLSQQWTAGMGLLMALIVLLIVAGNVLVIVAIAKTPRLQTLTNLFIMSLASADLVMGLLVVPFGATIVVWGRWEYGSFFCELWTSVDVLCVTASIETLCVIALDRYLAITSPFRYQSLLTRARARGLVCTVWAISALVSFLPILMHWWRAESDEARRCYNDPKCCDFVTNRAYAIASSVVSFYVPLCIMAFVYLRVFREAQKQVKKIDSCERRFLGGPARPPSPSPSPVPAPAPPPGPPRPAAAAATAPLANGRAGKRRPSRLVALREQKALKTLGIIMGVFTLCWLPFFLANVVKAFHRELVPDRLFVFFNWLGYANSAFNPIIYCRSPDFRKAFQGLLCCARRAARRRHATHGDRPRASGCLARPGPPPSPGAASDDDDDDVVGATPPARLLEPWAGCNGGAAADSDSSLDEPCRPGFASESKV
Sequence of hERG (KCNH2) (Q12809 whole entry): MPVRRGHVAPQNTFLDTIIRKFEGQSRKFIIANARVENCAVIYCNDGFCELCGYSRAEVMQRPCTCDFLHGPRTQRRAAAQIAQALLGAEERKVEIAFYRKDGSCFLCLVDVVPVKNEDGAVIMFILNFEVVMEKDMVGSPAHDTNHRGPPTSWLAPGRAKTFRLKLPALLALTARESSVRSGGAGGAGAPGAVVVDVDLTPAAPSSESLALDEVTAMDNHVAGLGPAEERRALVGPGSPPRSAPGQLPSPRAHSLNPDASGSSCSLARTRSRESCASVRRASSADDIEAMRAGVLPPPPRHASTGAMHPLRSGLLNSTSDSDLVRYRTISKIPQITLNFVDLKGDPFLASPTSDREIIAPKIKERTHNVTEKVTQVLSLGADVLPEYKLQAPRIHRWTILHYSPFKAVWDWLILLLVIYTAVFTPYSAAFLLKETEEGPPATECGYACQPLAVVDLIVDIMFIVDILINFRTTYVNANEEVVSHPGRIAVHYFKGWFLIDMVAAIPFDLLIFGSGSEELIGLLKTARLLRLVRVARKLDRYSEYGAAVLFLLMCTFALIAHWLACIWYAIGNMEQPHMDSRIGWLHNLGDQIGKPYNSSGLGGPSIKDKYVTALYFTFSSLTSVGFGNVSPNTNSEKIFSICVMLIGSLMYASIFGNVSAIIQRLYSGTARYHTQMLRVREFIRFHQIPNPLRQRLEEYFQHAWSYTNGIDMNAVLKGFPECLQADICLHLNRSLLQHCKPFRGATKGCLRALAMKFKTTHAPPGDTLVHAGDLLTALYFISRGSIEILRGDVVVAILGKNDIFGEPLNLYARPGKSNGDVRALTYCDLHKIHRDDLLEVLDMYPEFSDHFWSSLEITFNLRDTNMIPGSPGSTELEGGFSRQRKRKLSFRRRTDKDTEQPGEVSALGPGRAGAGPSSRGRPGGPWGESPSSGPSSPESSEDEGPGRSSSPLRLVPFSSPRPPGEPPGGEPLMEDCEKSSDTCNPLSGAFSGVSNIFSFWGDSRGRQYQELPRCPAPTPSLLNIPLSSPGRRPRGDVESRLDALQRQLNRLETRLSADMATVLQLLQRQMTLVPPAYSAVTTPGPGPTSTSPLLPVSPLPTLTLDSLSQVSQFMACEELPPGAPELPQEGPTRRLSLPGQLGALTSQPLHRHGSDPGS
Sequence of histamine H1 receptor (HRH1) (P35367 whole entry): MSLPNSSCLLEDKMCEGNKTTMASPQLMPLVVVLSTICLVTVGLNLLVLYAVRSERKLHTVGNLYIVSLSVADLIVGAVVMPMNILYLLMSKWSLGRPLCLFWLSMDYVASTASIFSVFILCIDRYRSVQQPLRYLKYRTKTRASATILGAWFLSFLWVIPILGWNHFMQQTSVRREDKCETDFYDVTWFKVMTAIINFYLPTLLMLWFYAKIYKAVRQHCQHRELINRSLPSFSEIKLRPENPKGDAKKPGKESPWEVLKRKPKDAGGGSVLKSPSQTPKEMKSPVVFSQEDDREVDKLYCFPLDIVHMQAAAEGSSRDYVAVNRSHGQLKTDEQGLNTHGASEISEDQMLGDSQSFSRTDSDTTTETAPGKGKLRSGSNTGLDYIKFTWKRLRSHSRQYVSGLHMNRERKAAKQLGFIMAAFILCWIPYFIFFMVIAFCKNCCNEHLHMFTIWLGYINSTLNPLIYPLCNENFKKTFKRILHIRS
Sequence of 5-hydroxytryptamine receptor 6 (P50406 whole entry): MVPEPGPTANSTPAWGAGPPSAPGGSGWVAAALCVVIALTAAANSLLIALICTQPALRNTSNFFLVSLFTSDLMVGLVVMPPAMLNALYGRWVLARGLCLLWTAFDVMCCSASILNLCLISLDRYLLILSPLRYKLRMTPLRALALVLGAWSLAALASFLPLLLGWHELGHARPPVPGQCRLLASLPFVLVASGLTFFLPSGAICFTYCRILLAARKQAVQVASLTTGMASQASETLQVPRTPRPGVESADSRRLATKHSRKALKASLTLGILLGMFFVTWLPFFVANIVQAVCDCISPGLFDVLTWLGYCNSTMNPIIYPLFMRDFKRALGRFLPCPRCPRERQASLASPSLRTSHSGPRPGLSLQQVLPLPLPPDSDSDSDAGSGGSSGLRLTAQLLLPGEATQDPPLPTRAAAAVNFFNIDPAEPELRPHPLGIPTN

As a reminder, the IC50 is the concentration that gives 50% inhibition. Turning to `COc1cccc2c1C(=O)c1c(O)c3c(c(O)c1C2=O)C[C@@](O)(C(=O)CO)C[C@@H]3O[C@H]1C[C@H](N)[C@H](O)[C@H](C)O1` [DOXORUBICIN], in series [1], the IC50 at 24 h turned out to be 2.3 µM.
Usually Ki stands for a dissociation constant, usually derived from enzyme kinetics or from competition with a known ligand. Higher therefore signals a looser hold on the target. Take `CC(C)c1nc2c(N3CCNCC3)nccc2n1S(=O)(=O)c1cccc(Cl)c1`: the Ki in [2] is 0.239 µM; in [3] it was 0.307 µM. Also, the Stabilty entry in series [4] is recorded as “Unstable”; in [5], “Stable”.
In series [6], `Cc1nc2c(N3CCNCC3)cccc2n1S(=O)(=O)c1ccccc1` [PF-05212377] came in with a Ki of 0.0005 µM.
In the case of `O=S(=O)(c1cccc(Cl)c1)n1cnc2c(N3CCNCC3)nccc21`, the Ki in [2] came to 0.355 µM; in series [3], 0.285 µM. Besides, the Stabilty result in series [4] was “Unstable”; in series [5], “Stable”.
As to `O=S(=O)(c1ccccc1)n1cnc2c(N3CCNCC3)nccc21`, the Stabilty entry in [4] is “Unstable”; in series [5] it was “Stable”.
The like results for `O=S(=O)(c1cccc(F)c1)n1c(-c2ccccc2)nc2c(N3CCNCC3)nccc21` were, in that order, “Unstable” and “Stable”.
One may read the CC50 as the concentration at which the toxic effect on the cells reaches its halfway point. `O=S(=O)(c1ccccc1)c1cnc2c(N3CCNCC3)cccc2c1` [INTEPIRDINE]: the Activity entry is “Non-Toxic” in series [7] and 12.06 um in series [8]. Further, the Stabilty entry in series [5] is on record as “Stable”. Moreover, the CC50 in series [9] is > 1 µM.
Consider `COc1cccc(S(=O)(=O)n2cnc3c(N4CCNCC4)nccc32)c1`, for which the values for the Stabilty result in [4] and in series [5] were “Unstable” and “Stable”, respectively.
For the molecule `O=S(=O)(c1cccc(Cl)c1)n1c(-c2ccccc2)nc2c(N3CCNCC3)nccc21`, the Ki in series [2] was 0.41 µM; in series [3], 1.09 µM. For the same molecule, the Stabilty entry is reported as “Unstable” in series [4] and “Stable” in series [5].
As a reminder, the EC50 is the concentration giving half of the maximal effect. The inhibition is the percentage by which the read-out fell short of the control. A low value points to a weak effect. As to `CCc1nc2c(N3CCNCC3)nccc2n1S(=O)(=O)c1cccc(Cl)c1`, the inhibition constant Ki in [2] came out at 0.562 µM; in [3], 0.146 µM. For the same molecule, the Activity result in series [10] is “Not Active”. The EC50 in series [11] was > 20 µM. Besides, the inhibition at 1 µM is 6% in [12]; 22% in series [13]; 4% in series [14]; 12% in series [15]; 10% in [16]. Also, the Stabilty entry in series [4] is “Unstable”; in [5] it was “Stable”.
Regarding `COc1cccc(S(=O)(=O)n2c(C(C)C)nc3c(N4CCNCC4)nccc32)c1`, the Stabilty result is “Unstable” in series [4], “Stable” in series [5] and “Stable” in series [17].
Regarding `O=S(=O)(c1ccccc1)n1c(-c2ccccc2)nc2c(N3CCNCC3)nccc21`, the Stabilty entry is on record as “Unstable” in series [4] and “Stable” in [5].
As for `CC(C)c1nc2c(N3CCNCC3)nccc2n1S(=O)(=O)c1cccc(F)c1`, the Stabilty result is on record as “Unstable” in [4] and “Stable” in [5].
Consider `COc1ccc(NS(=O)(=O)c2ccc(I)cc2)cc1N1CCN(C)CC1`, for which the Activity entry in [7] is listed as “Non-Toxic”. Also, the result in series [18], in series [19], in series [20] and in [21] was inactive. Besides, in series [9], the CC50 was > 1 µM.
On to `COc1cccc(S(=O)(=O)n2c(-c3ccccc3)nc3c(N4CCNCC4)nccc32)c1`, for which the Stabilty entry is “Unstable” in [4] and “Stable” in series [5].
On to `CCc1nc2c(N3CCNCC3)nccc2n1S(=O)(=O)c1cccc(F)c1`, for which the results for the Ki in series [2] and in series [3] were 0.264 µM and 0.829 µM, respectively. Also, the values for the Stabilty entry in series [4] and in series [5] were “Unstable” and “Stable”, respectively.
With `CC(C)c1nc2c(N3CCNCC3)nccc2n1S(=O)(=O)c1ccccc1`, the Stabilty entry is “Unstable” in series [4] and “Stable” in series [5].
For `O=S(=O)(c1cccc(F)c1)n1cnc2c(N3CCNCC3)nccc21`, in that order: “Unstable” and “Stable”.
